Source: article PMC8388771, “Cationic Peptidomimetic Amphiphiles Having a N-Aryl- or N-Naphthyl-1,2,3-Triazole Core Structure Targeting Clostridioides (Clostridium) difficile: Synthesis, Antibacterial Evaluation, and an In Vivo C. difficile Infection Model” (Antibiotics, 2021)
Converted amounts (≈) assume the structure as drawn. Like-named read-outs stand apart in the source and are kept apart here.

What was measured:
[1] = system: C. difficile ATCC 700057; assay: Primary MIC assay, C. difficile ATCC 700057; type: cell-based, Clostridioides difficile; conditions: Table 1
Method in brief: (§1)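 MIC values come from primary screening run to CLSI standards for aerobic and anaerobic bacteria, with vancomycin QC ranges checked.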

[2] = system: C. difficile 132 (RT027); assay: Primary MIC assay, C. difficile 132 (RT027); type: cell-based, Clostridioides difficile; conditions: Table 1
Method in brief: as §1

[3] = system: S. aureus ATCC 29213; assay: Primary MIC assay, S. aureus ATCC 29213; type: cell-based; conditions: Staphylococcus aureus, ATCC29213; Table 1; read-out: MIC S. aureus ATCC 29213
Method in brief: as §1

[4] = system: S. aureus NCTC 10442; assay: Primary MIC assay, S. aureus NCTC 10442 (MRSA); type: cell-based; conditions: Staphylococcus aureus, MRSA
Method in brief: as §1

[5] = system: E. faecalis ATCC 29212; assay: Primary MIC assay, E. faecalis ATCC 29212; type: cell-based, Enterococcus faecalis; conditions: Enterococcus faecalis, ATCC29212; Table 1; read-out: MIC E. faecalis ATCC 29212
Method in brief: as §1

[6] = system: S. pneumoniae ATCC 49619; assay: Primary MIC assay, S. pneumoniae ATCC 49619; type: cell-based, Streptococcus pneumoniae; conditions: Streptococcus pneumoniae, ATCC49619; Table 1; read-out: MIC S. pneumoniae ATCC 49619
Method in brief: as §1

[7] = system: E. coli ATCC 25922; assay: Primary MIC assay, E. coli ATCC 25922; type: cell-based; conditions: Escherichia coli, ATCC25922; Table 1; read-out: MIC E. coli ATCC 25922
[8] = Cytotoxicity (CC50) assay by CO-ADD; type: cell-based, human; conditions: human, HEK293 cells (ATCC CRL-1573); Table 1; cytotoxicity on HEK293 cells, tested at ≤32 µg/mL
[9] = system: human erythrocytes; assay: Hemolysis assay, HC50 determination; type: cell-based
Description: Hemolysis assay (human erythrocytes)–HC50 determination. These were performed as described previously.

[10] = system: S. aureus ATCC 43300; assay: CO-ADD MIC assay, S. aureus ATCC 43300 (MRSA); type: cell-based; conditions: Staphylococcus aureus, MRSA, read-out: MIC S. aureus ATCC 43300
Method in brief: (§2)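 CO-ADD whole-cell growth-inhibition MIC screening of the peptidomimetics against MRSA and Gram-negative strains.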

[11] = system: P. aeruginosa ATCC 27853; assay: CO-ADD MIC assay, P. aeruginosa ATCC 27853; type: cell-based; conditions: Pseudomonas aeruginosa, ATCC27853, Table S1
Method in brief: as §2

[12] = system: K. pneumoniae ATCC 700603; assay: CO-ADD MIC assay, K. pneumoniae ATCC 700603; type: cell-based; conditions: Klebsiella pneumoniae, ATCC700603, Table S1, multi-drug resistant
Method in brief: as §2

[13] = system: A. baumannii ATCC 19606; assay: CO-ADD MIC assay, A. baumannii ATCC 19606; type: cell-based; conditions: Acinetobacter baumannii, ATCC19606, Table S1
Method in brief: as §2

[14] = system: E. coli ATCC 25922; assay: CO-ADD MIC assay, E. coli ATCC 25922; type: cell-based; conditions: Escherichia coli, ATCC25922, Table S1
Method in brief: as §2

[15] = system: C. albicans ATCC 90028; assay: CO-ADD MIC assay, C. albicans ATCC 90028; type: cell-based; conditions: Candida albicans, ATCC90028, Table S1
Method in brief: (§3)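 Whole-cell growth inhibition (MIC) screening run by CO-ADD. Fluconazole served as antifungal positive control.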

[16] = system: Cryptococcus neoformans var. grubii ATCC 208821; assay: CO-ADD MIC assay, C. neoformans var. grubii ATCC 208821; type: cell-based
Method in brief: as §3

[17] = system: C. difficile strain M7404 (RT027); assay: In vivo murine model of CDI treatment; design: species or system C57BL/6J mice
Description: Disease Treatment Model. These experiments were performed as previously described. Mice were humanely killed at the onset of severe disease or at the end of the experiment (day 4), as previously described.
Statistical Analysis. Statistical analysis was performed using Prism 7 (GraphPad Software). The Kaplan–Meier survival curves were assessed using a log-rank (Mantel–Cox) test. Weight loss, spore shedding, fecal consistency, and physiological appearance data were analyzed by one-way ANOVA with a post hoc Tukey’s multiple comparison test. Differences in data values were considered significant at a p value of <0.05.
Figure 3 C57BL/6J mice (n = 5 per group) were infected with 10^5 spores of C. difficile strain M7404 (RT027). Six hours post-infection and then every 12 h thereafter, mice were administered either 10% DMSO (blue) or 2.5 mg (100 mg/kg in 10% DMSO) of compound 40 (red) by oral gavage. Mice were monitored daily for survival (a) and weight loss relative to day 0, which was the day of infection (b). Fecal spore load at 1-day post-infection was determined by plating (c). Data are presented as CFU/gram feces, with each point representing a single mouse. Mouse cages were scored on day 1 post-infection for appearance (d) and mice were individually assessed for fecal consistency (e) and physiological appearance (f). Data represent the mean ±S.E.M. and statistical significance was assessed using a log-rank (Mantel–Cox) test or one-way ANOVA with a post hoc Tukey’s multiple comparison test. […]
The murine model of CDI was conducted with project collaborators at Monash University. The murine model of CDI was performed by pretreating cohorts of five mice that had been earlier infected via oral gavage with hypervirulent M7404 C. difficile spores. The infection was allowed to develop for 12 h before the trial drug was administered every 12 h for five days. The mice received a single dosage of 2.5 mg of […] (i.e.
100 mg/kg for an average 25 g mouse) administered in a solvent mixture of 10% DMSO and H2O at each 12 h dosing period. The mice body weight was checked every day. If a mouse lost 10% of its body weight in the first 24 h, then the infection was developing, and the mouse was separated from the trial and culled for ethical reasons. The whole survival rate for every drug cohort was utilized to measure effectiveness of that drug.
Other physiological parameters such as cage appearance scores and faecal consistency scores were additional measures for the efficacy of the drug in this murine trial. The experimental data of the in vivo CDI model can be found in Section 3.3.3 and the experimental procedures can be found in Section 6.4.3.
Compound 40 was selected for a murine model of CDI study because of its better antimicrobial potency against C. difficile and its better water solubility profile (Section 3.2.7). Compound 40 was prepared on a larger scale i.e. nearly 300 mg for the purpose of in vivo mouse model of CDI at Monash University. […]
In the secondary CDI mouse model trial, the solution (10% v/v DMSO/H2O) of the compound 40 was ad-ministered to mice by oral gavage.

[18] = Comparative solubility assay (solubility ratio relative to compound 1); type: physicochemical
Excerpt: While the selectivity ratio could be more substantial, this is acceptable for the future development of these gastrointestinal focused compounds. […] These outcomes were confirmed with no issues during the mouse model trials with sufficient solubility in the dosage regimen. Variations on the triazole and O-naphthyl substituents could be made in future studies with the view of enhancing antibacterial activity against C. difficile.

[19] = system: C. difficile; assay: MIC against C. difficile, strain not given; type: cell-based; conditions: Clostridioides difficile, strains of Table 1
Description: Primary screening (Gram-positive bacteria). Primary MIC assays were performed as described by the Clinical and Laboratory Standards Institute for aerobic and anaerobic bacteria. MIC values for vancomycin were within acceptable QC ranges.

[20] = system: C. difficile 132 (RT027); design: method as in PMID 30831407; conditions: Table 2; cited from earlier work
[21] = system: S. aureus ATCC 29213; design: method as in ref 30 (1), 31 (2, 4), 19 (3); conditions: Table 2; ref 30 (1), 31 (2, 4), 19 (3); cited from earlier work
[22] = system: S. aureus NCTC 10442; design: method as in ref 31 (2, 4), 19 (3); conditions: Table 2; MRSA; ref 31 (2, 4), 19 (3); cited from earlier work
[23] = system: E. faecalis ATCC 29212; design: method as in ref 30 (1), 31 (2, 4), 19 (3); conditions: Table 2; ref 30 (1), 31 (2, 4), 19 (3); cited from earlier work
[24] = system: S. pneumoniae ATCC 49619; design: method as in ref 30 (1), 31 (2, 4), 19 (3); conditions: Table 2; ref 30 (1), 31 (2, 4), 19 (3); cited from earlier work
[25] = system: E. coli ATCC 25922; design: method as in ref 30 (1), 31 (2, 4), 19 (3); conditions: Table 2; ref 30 (1), 31 (2, 4), 19 (3); cited from earlier work
[26] = system: HEK293 cells; design: method as in PMID 30831407; conditions: Table 2; cited from earlier work
[27] = system: S. aureus ATCC 43300; design: method as in PMID 30831407; conditions: Table 2; MRSA; cited from earlier work
[28] = system: sheep erythrocytes; conditions: Table 2 HC50 column, footnote i; sheep erythrocytes; cited from earlier work
[29] = design: method as in PMID 30901686; conditions: cited from earlier work
[30] = system: C. difficile; conditions: Figure 1; cited from earlier work
[31] = system: C. difficile; design: method as in PMID 30901686; conditions: murine CDI model; 10% DMSO group 0%; cited from earlier work

For `CC(C)CCc1cn(-c2c(OCC(=O)N[C@H](CCCCN)C(=O)N[C@H](CCCNC(=N)N)Cn3cc(C4CCCCC4)nn3)ccc3ccccc23)nn1.Cl.Cl` [Compound 40, (R)-6-Amino-N-((R)-1-(4-cyclohexyl-1H-1,2,3-triazol-1-yl)-5-guanidinopentan-2-yl)-2-(2-((1-(4-isopentyl-1H-1,2,3-triazol-1-yl)naphthalen-2-yl)oxy)acetamido)hexanamide dihydrochloride], the MIC ([1]; Clostridioides difficile, ATCC700057, read-out: MIC C. difficile ATCC 700057) was 8 µg/mL, the “MIC C. difficile ATCC 700057” value [1] was 8 µg/mL and the MIC ([2]; Clostridioides difficile, read-out: MIC C. difficile 132 (RT027)) was 8 µg/mL. For the same compound, the “MIC C. difficile 132 (RT027)” value [2] was 8 µg/mL, the MIC [3] was 16 µg/mL and the MIC ([4]; MRSA / NCTC 10442 / NCTC 104422, Table 2, read-out: MIC S. aureus NCTC 104422) was 16 µg/mL. It also gave an MIC ([4]; Table 1, read-out: MIC S. aureus NCTC 10442) of 16 µg/mL, an MIC [5] of 32 µg/mL and an MIC [6] of 16 µg/mL. The MIC [7] was 64 µg/mL, the CC50 [8] was 32 µg/mL and the HC50 ([9]; Table 1, lysis of human erythrocytes) was 32 µg/mL. The HC50 ([9]; Table 2, footnote says lysis of sheep erythrocytes) was 32 µg/mL, the HC50 ([9]; Table S1, footnote says lysis of sheep erythrocytes) was 32 µg/mL and the MIC ([10]; Table 2) was 8 µg/mL. The MIC ([10]; Table S1, CO-ADD) was 8 µg/mL, the MIC [11] was 32 µg/mL and the MIC [12] was > 32 µg/mL. For the same compound, the MIC [13] was 32 µg/mL, the MIC [14] was 32 µg/mL and the MIC [15] was > 32 µg/mL. For the same compound, the MIC ([16]; Cryptococcus neoformans, ATCC208821, Table S1) was 4 to 8 µg/mL, the “MIC C. neoformans var. grubii ATCC 208821” value ([16]; Table S1) was 4 µg/mL and the “disease onset compared to mice treated with DMSO” value ([17]; 100 mg/kg oral gavage) was “delayed disease onset”. For the same compound, the “effect on spore numbers shed in the feces” value ([17]; 1-day post-infection) was “no effect”, the “greater survival compared with mice treated with DMSO” value ([17]; day 1 post-infection) was 40% and the “individual fecal score vs DMSO group” value ([17]; day 1 post-infection) was “no significant difference”. For the same compound, the “overall cage appearance score compared to DMSO” value ([17]; day 1 post-infection) was “lower”, the “physiological appearance score vs DMSO group” value ([17]; day 1 post-infection) was “no significant difference” and the survival outcome ([17]; day 2) was “succumbed to infection by day 2”. For the same compound, the “survival observed after 24 h” value ([17]; mice, 100 mg/kg in 10% DMSO by oral gavage every 12 h, DMSO control 40%) was 80%, the “effect on mouse weight” value ([17]; weight loss relative to day 0) was “no effect” and the “relative solubility ratio (relative to compound 1)” value [18] was 5. It also gave an MIC [19] of 8 µg/mL.

In the case of `CC(C)CCOc1ccc2ccccc2c1-c1c(OCc2cn(C[C@@H](CCCCN)NC(=O)[C@@H](CCCNC(=N)N)NC(=O)CCc3ccccc3)nn2)ccc2ccccc12` [Compound 2], the “MIC C. difficile 132 (RT027)” value [20] is given as 32 µg/mL (≈ 38.1 µM), the “MIC S. aureus ATCC 29213” value [21] is given as 4 µg/mL (≈ 4.76 µM) and the “MIC S. aureus NCTC 104422” value [22] is given as 4 µg/mL (≈ 4.76 µM). The “MIC E. faecalis ATCC 29212” value [23] was 4 µg/mL (≈ 4.76 µM), the “MIC S. pneumoniae ATCC 49619” value [24] was 4 µg/mL (≈ 4.76 µM) and the “MIC E. coli ATCC 25922” value [25] was 8 µg/mL (≈ 9.52 µM). The CC50 [26] was 27.4 µg/mL (≈ 32.6 µM), the “MIC S. aureus ATCC 43300” value [27] was 2 µg/mL (≈ 2.38 µM) and the “% hemolysis at 50 µg/mL” value [28] was 94% ^i. For the same compound, the “appearance in the solubility assay” value ([29]; Figure 1) was “homogenous suspension”, the “SR = solubility ratio relative to that of compound 1” value [29] was 3 and the “MIC against C. difficile” value [30] was 8 µg/mL (≈ 9.52 µM). For the same compound, the “survival rate at 24 h” value [31] was 50%.
